Converted amounts (≈) assume the structure as drawn. Like-named read-outs stand apart in the source and are kept apart here.
What was measured:
Assay type in all cases: cell-based
Cryptococcus neoformans = test: minimum inhibitory concentration, Cryptococcus neoformans, broth microdilution; conditions: 24 h
Protocol: Microorganism inocula was harvested from one to five day old cultures grown on Sabourand's dextrose agar. After two washes with sterile saline, the inocula were counted utilizing a hemacytometer and diluted or concentrated as required to 1×10^4 blastospores per ml. Sterile molten agar (at 50° C.) was inoculated, allowed to cool, and 10 mm diameter discs impregnated (from […] stock solutions) with each of the test compounds was placed on the surface of the agar. Zones of inhibition were measured after incubating the plates at 30° C. for 24-48 hours.
The compounds were then screened against three strains of three species of microorganisms: Candida albicans, Cryptococcus neoformans, and Aspergillus fumigatus using a conventional double dilution technique. All tests reported in Table II were done by broth microdilution in yeast nitrogen base-glucose using an inoculum of 1×10^4 blastospores per ml; the cultures were incubated at 37° C. for 24 hours, and the minimum concentration (in μg/ml) that prevents visible growth was recorded as the minimum inhibitory concentration.

Candida albicans = test: K+ release from fungal cells; conditions: 3×10^7 fungal cells/ml, read-out: concentration for releasing 50% of the K+ from fungal cells
[1] = tested on: Candida albicans (isolate NIH A); test: MIC against infecting isolate of Example V; conditions: 24 and 48 hours

COCCOCCOCCOCCOCCOCCNC(=O)[C@H]1[C@@H]2C[C@@H](O[C@@H]3O[C@H](C)[C@@H](O)[C@H](N)[C@@H]3O)/C=C/C=C/C=C/C=C/C=C/C=C/C=C/[C@H](C)[C@@H](O)[C@@H](C)[C@H](C)OC(=O)C[C@H](O)C[C@H](O)CC[C@@H](O)[C@H](O)C[C@H](O)C[C@](O)(C[C@@H]1O)O2 [Example II]
MIC (Cryptococcus neoformans; C. neoformans (1), 37° C., read-out: minimum inhibitory concentration): 3.2 µg/mL (≈ 2.66 µM) | MIC (Cryptococcus neoformans; C. neoformans (2), 37° C., read-out: minimum inhibitory concentration): 3.2 µg/mL (≈ 2.66 µM) | MIC (Cryptococcus neoformans; read-out: minimum inhibitory concentration, C. neofornams (3), 37° C.): 3.2 µg/mL (≈ 2.66 µM) | EC50 (Candida albicans): 1000 nM | MIC ([1]; in DMSO and water): 3.03 µg/mL (≈ 2.52 µM) | MIC ([1]; in water only): ≤ 6.06 µg/mL
